# Experimental data published in PMC11335189, “Revealing molecular determinants governing mambalgin-3 pharmacology at acid-sensing ion channel 1 variants” (Cellular and Molecular Life Sciences: CMLS, 2024).
# Positions of bridges follow the written chain, without caps; N, C: chain ends. No end group written: not given here.
# How the values were obtained:
# [1] = target: T1, rASIC1b C208Q/N324K (CN/QK) (Rattus norvegicus, UniProt P55926, C208Q/N291K); test: TEVC oocytes, rASIC1b double mutant CN/QK; format: cell-based
# T1 construct: expressed in transfected cells; host or cells: Xenopus laevis oocytes injected with cRNA
# T1 sequence (P55926 1-559 isoform P55926-3 C208Q/N324K): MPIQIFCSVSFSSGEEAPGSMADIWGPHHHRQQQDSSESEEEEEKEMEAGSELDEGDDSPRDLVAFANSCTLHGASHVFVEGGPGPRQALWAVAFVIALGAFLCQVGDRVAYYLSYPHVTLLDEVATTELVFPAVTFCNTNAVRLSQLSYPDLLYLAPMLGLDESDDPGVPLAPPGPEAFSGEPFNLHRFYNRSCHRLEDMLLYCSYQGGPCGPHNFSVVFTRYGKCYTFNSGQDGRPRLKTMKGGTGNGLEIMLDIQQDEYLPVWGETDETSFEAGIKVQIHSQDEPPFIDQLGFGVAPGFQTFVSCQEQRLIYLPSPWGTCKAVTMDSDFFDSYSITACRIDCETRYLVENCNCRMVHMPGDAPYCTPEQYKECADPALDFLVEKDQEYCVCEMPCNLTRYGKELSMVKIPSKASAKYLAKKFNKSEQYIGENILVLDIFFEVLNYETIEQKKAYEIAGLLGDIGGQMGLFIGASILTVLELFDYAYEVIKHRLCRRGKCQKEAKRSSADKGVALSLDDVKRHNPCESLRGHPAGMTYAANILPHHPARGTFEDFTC
# Description: (§1) Two-electrode voltage-clamp (TEVC) experiments using Xenopus laevis oocytes were conducted as previously described. Briefly, oocytes were surgically removed from anaesthetised female frogs, then treated with collagenase (~ 1 mg/ml, Sigma type I) for 2 h under agitation at room temperature. cRNAs were synthesised using a mMessage mMachine T7 or SP6 transcription kit (Thermo Fisher Scientific Australia Pty Ltd, Scoresby, VIC, Australia) and injected into healthy stage V–VI oocytes at 0.2–20 ng per cell. […] Membrane currents were recorded 2–7 days after cRNA-injection under voltage-clamp at -60 mV (Axon Axoclamp 900 A, Molecular Devices, CA, USA) using two standard glass microelectrodes of 0.5–1 MΩ resistance when filled with 3 M KCl solution. […]
# (§2) Specific to this work, the standard protocol was for oocytes to be conditioned at pH 7.45 and channels stimulated every 60 s using a 5 s pH 5 or 6 application, unless stated otherwise. […] Activation curves were determined by conditioning oocytes at pH 8 (Fig. 2e − g; and Fig. 5a and b) or 7.45 (Fig. 6; and Supplementary Fig. 2d and c) for 55 s and applying low pH stimuli from 7.25 to 5.0 for 5 s. Steady-state desensitisation (SSD) was determined by applying conditioning solutions of pH values from 8 to 6 for 115 s prior to stimulation by a pH drop to 5 for 5 s. […] Control pH-dependence curves were determined in the absence of any Ma-3. […]
# [2] = tested on: rASIC1a: rASIC1b chimera C92; test: TEVC oocytes, rASIC1a: rASIC1b chimera C92; format: cell-based, rat; conditions: conditioning pH 7.45, stimulating pH 5
# Description: as §1, §2
substance,measurement,setting,value
"H-SLKCYQHGKVVTCHRDMKFCYHNIGMPFRNLKLILQGCSSSCSETENNKCCSTDRCNK (disulfide 4-20, 13-38, 42-50, 51-56 (inferred)) [Ma-3, mambalgin-3]",pH50 of activation in presence of Ma-3,"[1]; 300 nM Ma-3, conditioning pH 7.45, Hill fit, n = 5–6",6.29
same,Hill slope (95% CI),"[1]; conditioning pH 7.45, pH 6 evoked currents, potentiation, 95% CI",0.69–2.48
same,activity of 300 nM Ma-3,[2],only partially inhibited
